Assay results from PubChem BioAssay (NCI).
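Exposure lasted 48 hours, with cells grown in 96-well plates and compounds tested at five concentrations. TGI is the concentration that stops growth completely.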

Key:
Assay in all cases: inhibition of tumour cell growth, NCI panel, 48 h
[1] = system: CAKI-1 renal
[2] = system: SF-295 CNS
[3] = system: HS 578T breast
[4] = system: M14 melanoma
[5] = system: UACC-62 melanoma
[6] = system: HOP-62 NSCLC
[7] = system: SK-OV-3 ovarian
[8] = system: SR leukemia
[9] = system: SF-539 CNS
[10] = system: MDA-MB-231 breast
[11] = system: HOP-92 NSCLC
[12] = system: OVCAR-8 ovarian
[13] = system: NCI-H522 lung

SMILES | TGI [1] | TGI [2] | TGI [3] | TGI [4] | TGI [5] | TGI [6] | TGI [7] | TGI [8] | TGI [9] | TGI [10] | TGI [11] | TGI [12] | TGI [13]
OC1NC2Nc3ccccc3NC2NC1O (configuration not stated) | > 100 µM | > 100 µM | > 100 µM | > 100 µM | > 100 µM | > 100 µM | > 100 µM | > 100 µM | > 100 µM | > 100 µM | > 100 µM | > 100 µM | > 100 µM
COc1ccc2c(c1)c1c3c(ccc4ncn2c43)N(CCO)CCN=1 | 2.51 µM | 0.831 µM | 0.605 µM | 0.772 µM | 0.602 µM | 0.476 µM | 2.03 µM | 0.207 µM | 0.347 µM | 0.511 µM | 5.2 µM | 1.72 µM | 0.277 µM
NC1=Nc2ccccc2Sc2nncn21 | > 100 µM | > 100 µM | > 100 µM | > 100 µM | > 100 µM | > 100 µM | > 100 µM | > 100 µM | > 100 µM | > 100 µM | > 100 µM | > 100 µM | > 100 µM
COC(=O)C1=C(C)NC(=O)N2[C@@H](CCOCc3ccccc3)CC[C@@H]12 | > 50 µM | > 50 µM | > 50 µM | > 50 µM | > 50 µM | > 50 µM | > 50 µM | > 50 µM | > 50 µM | > 50 µM | > 50 µM | > 50 µM | > 50 µM
CC(=O)Nc1nc(C)c(S(=O)(=O)NC(=O)NC2NC(=O)NC2=O)s1 (configuration not stated) | > 100 µM | > 100 µM | > 100 µM | > 100 µM | > 100 µM | > 100 µM | > 100 µM | > 100 µM | > 100 µM | > 100 µM | > 100 µM | > 100 µM | > 100 µM
C(=N\c1nc2cc3sc(/N=C/c4ccccc4)nc3cc2s1)/c1ccccc1 | > 100 µM | > 100 µM | 97.4 µM | > 100 µM | > 100 µM | > 100 µM | > 100 µM | > 100 µM | > 100 µM | > 100 µM | > 100 µM | > 100 µM | 97.4 µM
C#CC1(O)CCC2[C@@H]3CCc4cc(Oc5nc(F)nc(-c6c(C)c(C(=O)OCC)n7ccccc67)n5)ccc4C3CC[C@@]21C (some centres not stated) | > 100 µM | > 100 µM | > 100 µM | > 100 µM | > 100 µM | > 100 µM | > 100 µM | > 100 µM | > 100 µM | > 100 µM | > 100 µM | > 100 µM | > 100 µM
Cc1c(NC(=S)Nc2ccc([N+](=O)[O-])cc2)c(=O)n(-c2ccccc2)n1C | > 100 µM | > 100 µM | > 100 µM | > 100 µM | > 100 µM | > 100 µM | > 100 µM | > 100 µM | > 100 µM | > 100 µM | > 100 µM | > 100 µM | > 100 µM
CO/C=C(/C(=O)OC)[C@@H]1C[C@@H]1c1ccc2ccccc2c1 | 66 µM | > 100 µM | > 100 µM | 71.9 µM | > 100 µM | > 100 µM | 59.4 µM | 44.7 µM | 44.2 µM | > 100 µM | 72.9 µM | > 100 µM | 28.5 µM
Nc1ncnc2c1ncn2[C@H]1C=C[C@@H](NO)C1 | > 100 µM | > 100 µM | > 100 µM | > 100 µM | > 100 µM | > 100 µM | > 100 µM | > 100 µM | > 100 µM | > 100 µM | > 100 µM | > 100 µM | > 100 µM
C=C1C2CCC3C4(C)CCCC(C)(C(=O)O)C4CCC3(C2)C1OC(=O)/C(C)=C/C (configuration not stated) | > 100 µM | 44.2 µM | > 100 µM | 45.1 µM | 62.2 µM | > 100 µM | 70.2 µM | 9.55 µM | 55.1 µM | 46.9 µM | 54.6 µM | > 100 µM | > 100 µM
C[C@H](Nc1nc(N)c(N=O)c(=O)n1C)C(=O)O | > 10 µM | > 10 µM | > 10 µM | > 10 µM | > 10 µM | > 10 µM | > 10 µM | > 10 µM | > 10 µM | > 10 µM | > 10 µM | > 10 µM | > 10 µM
COc1ccc(/[N+]([O-])=C/c2ccc(OC(=S)S)c(OC)c2)cc1 | 66.7 µM | > 100 µM | > 100 µM | > 100 µM | > 100 µM | > 100 µM | > 100 µM | 63.5 µM | > 100 µM | > 100 µM | 81 µM | > 100 µM | > 100 µM
Cc1ccc2nc3ccccc3c(C3C4C(=O)N(c5ccc(F)cc5)C(=O)C4ON3C(C(N)=O)c3ccccc3)c2c1 (configuration not stated) | > 100 µM | > 100 µM | > 100 µM | > 100 µM | > 100 µM | > 100 µM | > 100 µM | > 100 µM | 72.1 µM | > 100 µM | > 100 µM | > 100 µM | 57.8 µM
